Converted amounts (≈) assume the structure as drawn. Residues, ends and D or L forms follow the SMILES beside them.
Assays:
[1] = tested on: S. epidermidis MRSE (SO-SEP9-1); settings: SO-SEP9-1, 24 h
Method: (§1) Briefly, bacterial colonies from blood agar plates were suspended and grown in Cation-Adjusted Mueller-Hinton Broth (CAMHB, […] Ca^2+, […] Mg^2+). The bacterial suspension was adjusted to 0.5 McFarland standard (∼1 × 10^8 colony-forming units (CFU)/ml) and serial diluted 1:200 in CAMHB (∼5 × 10^5 CFU/mL). […] The suspension was plated out on blood agar plates to confirm the CFU/ml. Both the microtiter plates and the blood agar plates were incubated at 37°C for 24 h.

E. coli [2] = assay: Growth inhibition assay (OD600 over 24 h); assay type: cell-based, Escherichia coli; design: Reduction of viability E. coli (60 μg/ml): key to the marks not given beside the values; settings: LB medium
Method: An overnight culture of Escherichia coli was diluted 1:100 in Luria-Bertani (LB) medium and allowed to grow until an optical density (OD) at 600 nm (OD600) of 0.06–0.1. APIM-peptides were prepared by serial dilution in Milli-Q H2O and kept at 4°C. Fresh LB medium (60 μl) was added to a flat-bottom microtiter plate. The bacterial suspension was diluted 1:100 in LB, and 75 μl of this suspension was added to the wells. Finally, 15 μl of APIM-peptide solution (to final concentrations 60, 120, and 240 μg/ml) or distilled water (positive control) was added to the wells, reaching a total volume of 150 μl per well. Data are presented only for the dose that separated the effect of the different peptides, i.e., 60 μg/ml. A blank sterile medium was used as negative control. The plates were incubated with shaking at 510 rpm at 37°C inside a plate reader (TECAN, Spark®), and OD was read every hour over a period of 24 h.
The MIC for E. coli in LB medium is higher than that in CAMHB; thus, concentrations higher than the MIC given in Table 2 are used in the growth inhibition and mutagenesis assays. […]
E. coli. Growth of E. coli in LB medium over 24 hours (Optical Density (OD) 600 nm) after addition
of APIM-peptide variants 1-5 (60 µg/mL) at time t=0 (see Table 2). Negative (-) control is no
bacteria added, positive (+) control is untreated bacteria.
highest inhibition of growth.
control (black filled line).

HEK293 cells = tested on: HEK293 cells
Method: HEK293 cells (6,000 cells/well) were seeded in 96-well microtiter plates. After 4 h, APIM-peptides (12–48 μg/ml) were added, and the cells were incubated without change of media for up to 4 days. Viability was measured using the 3-(4,5-dimethylthiazol-2-yl)-2,5-diphenyltetrazolium bromide (MTT) assay as described ([Gilljam et al., 2009]).
(1 picture or pasted object on this page, not shown here)

E. coli [3] = assay: Rifampicin (RifR) mutagenesis assay after UV-C; assay type: cell-based, Escherichia coli; settings: 20 μg/ml peptide, UV-C 20 mJ/cm^2, RifR assay, relative to untreated control
Method: The rifampicin (Rif^R) mutagenesis assay was performed as described ([Nedal et al., 2020]). Briefly, an overnight culture of E. coli was diluted 1:1,000 and grown until an OD600 of 0.01. APIM-peptides (20 μg/ml) were added to LB media with glass beads (for uniform distribution of APIM-peptides) and incubated for 30 min at 37°C. The pellets were next collected, resuspended in 500 μl PBS, and exposed to UV-C (20 mJ/cm^2) in a six-well plate at 4°C. The unexposed bacteria (-UV) were otherwise handled exactly like the UV-exposed bacteria. Next, the cells were resuspended in LB media and incubated in a rotary shaker at 37°C at 250 rpm for 2 h before being harvested, diluted, and plated on LB with soft agar with and without rifampicin (100 μg/ml). Mutation frequency, Rif^R/10^8, is obtained as follows: (number of colonies on the rifampicin plate (Rif^R)/(number of colonies on LB plates without antibiotics), per milliliter of bacterial suspension. […]
mutagenesis in E. coli more efficiently than the other peptide variants.
Increase in mutation frequencies after treatment with UV-C (20 mJ/cm2) relative to spontaneous mutations frequencies using the RifR assay were determined. This increase is set to 100% for untreated control, and % reduction after addition of peptides 1-5 (20 μg/mL) are shown. Mean ± SD from three independent experiments. * p<0.05, ** p<0.005

A. baumannii = assay: microbe, parasite or virus in culture; settings: 24 h
Method: as §1

E. cloacae = assay: microbe, parasite or virus in culture; settings: 24 h
Method: as §1

E. coli [4] = assay: microbe, parasite or virus in culture; settings: 24 h
Method: as §1

E. faecium = assay: microbe, parasite or virus in culture; settings: 24 h
Method: as §1

K. pneumoniae = assay: microbe, parasite or virus in culture; settings: 24 h
Method: as §1

P. aeruginosa = assay: microbe, parasite or virus in culture; settings: 24 h
Method: as §1

S. aureus = assay: microbe, parasite or virus in culture; settings: 24 h
Method: as §1

HaCaT keratinocytes = assay type: cell-based, human; settings: betatide 2 μg/ml, 3-mm gap, similar to the uninfected cells
Method: Bacterial growth was examined by plating of supernatants.
Epithelialization was calculated from the change in the area of the gaps over time using freehand or rectangular selections in the software Fiji ImageJ 1.52p (National Institutes of Health, United States).
=(AreaofgapinDay 1-Areaofgapineachconsecutiveday)/AreaofgapinDay 1

[5] = tested on: intracellular S. aureus ATCC 29213 in HaCaT cells; assay: Intracellular infection model; assay type: cell-based, Staphylococcus aureus
Method: The intracellular infection model used was modified from [Iqbal et al. (2016)] by optimizing the number of multiplicity of infection (MOI: number of bacteria per cell) and time of infection. Briefly, HaCaT cells (6.5 × 10^4/well) were seeded in 24-well plates and incubated overnight in a medium without antibiotics. The next day, approximately 1.25 × 10^5 cells/well were infected with S. aureus at an MOI of 100 in antibiotic-free media. The plates were incubated for 3 h. […] After 16 h of incubation, the extracellular media (100 μl) from each well were plated to confirm the eradication of extracellular S. aureus. Next, the cells were washed 2× with 500 μl PBS before they were lysed with 0.2% Triton-X (500 μl) for 30 min at room temperature. The lysed samples were placed on ice, and 500 μl cold Tryptic Soy Broth was added before they were plated on blood agar plates.

bacteria = assay: MIC comparisons between peptide variants (bacterium not stated); assay type: cell-based; settings: betatide compared to ATX-101
Cpx mutant E. coli cells = Cpx mutant E. coli cells with constitutive active Cpx response; ref Frimodt-Moller et al., 2021; cited from earlier work
Description: This, in turn, can reduce the fitness of the bacteria, similar to what has been shown for another peptide targeting the β-clamp called griselimycin.

CC[C@H](C)[C@H](NC(=O)CNC(=O)[C@H](CCCCN)NC(=O)[C@@H](NC(=O)[C@H](CC(C)C)NC(=O)[C@H](Cc1c[nH]c2ccccc12)NC(=O)[C@H](CCCNC(=N)N)NC(=O)[C@H](CC(=O)O)NC(=O)[C@H](CCSC)NC(C)=O)C(C)C)C(=O)N[C@@H](CC(C)C)C(=O)N[C@@H](CCC(N)=O)C(=O)N[C@@H](Cc1c[nH]c2ccccc12)C(=O)N[C@@H](CCCNC(=N)N)C(=O)N[C@@H](CCCCN)C(=O)N[C@H](C(=O)N[C@@H](CCCNC(=N)N)C(=O)N[C@@H](CCCNC(=N)N)C(=O)N[C@@H](CCCNC(=N)N)C(=O)N[C@@H](CCCNC(=N)N)C(=O)N[C@@H](CCCNC(=N)N)C(=O)N[C@@H](CCCNC(=N)N)C(=O)N[C@@H](CCCNC(=N)N)C(=O)N[C@@H](CCCNC(=N)N)C(=O)N[C@@H](CCCNC(=N)N)C(=O)N[C@@H](CCCNC(=N)N)C(=O)N[C@@H](CCCNC(=N)N)C(N)=O)[C@@H](C)CC [betatide] (Ac-MDRWLVKGILQWRKIRRRRRRRRRRR-NH2)
MIC S. epidermidis MRSE [1]: 16 µg/mL (≈ 4.32 µM) | MIC for MRSE in DMEM [1]: 0.25 µg/mL | inhibition of growth of E. coli (OD 600 nm) (E. coli [2]; 60 µg/mL, over 24 hours, Supplementary Figure S1): lowest OD after 8 hours | Reduction of viability E. coli (60 μg/ml) (E. coli [2]; 60 μg/ml peptide, OD600 every hour over 24 h, relative to untreated control): ++++ | Reduction of viability HEK293 (24 μg/ml) (HEK293 cells): + | Reduction of mutation frequency E. coli (20 μg/ml) (E. coli [3]): ++++ | MIC (A. baumannii): 8 µg/mL (≈ 2.16 µM) | MIC (A. baumannii; Clinical isolate SO-ABA19-1 (ESBL-CARBA-D), CAMHB, three independent experiments): 8 µg/mL (≈ 2.16 µM) | MIC (E. cloacae): 16 µg/mL (≈ 4.32 µM) | MIC (E. coli [4]): 16 µg/mL (≈ 4.32 µM) | MIC (E. coli [4]; Clinical isolate SO-ECO19-1 (ESBL-CARB-A(CTX-M-24)/D(OXA-48)), CAMHB, three independent experiments): 16 µg/mL (≈ 4.32 µM) | MIC E. coli (E. coli [4]; K-12 MG1655, CLSI broth microdilution, CAMHB, 37°C, visible growth, net peptide concentration): 16 µg/mL (≈ 4.32 µM) | MIC (E. faecium): 8 µg/mL (≈ 2.16 µM) | MIC (K. pneumoniae): 16 µg/mL (≈ 4.32 µM) | MIC (P. aeruginosa): 16 µg/mL (≈ 4.32 µM) | MIC (S. aureus): 32 µg/mL (≈ 8.65 µM) | MIC (S. aureus; Clinical isolate SO-SAU19-1 (MRSA), CAMHB, three independent experiments): 16 µg/mL (≈ 4.32 µM) | MIC (S. aureus; Reference strain ATCC 29213, CAMHB, three independent experiments): 16 µg/mL (≈ 4.32 µM) | epithelialization of MRSE-infected HaCaT cells (HaCaT keratinocytes): completed at day 4 | reduction in intracellular bacterial load ([5]; betatide 24 μg/ml for 16 h, MOI 100, 3 h infection, extracellular bacteria killed by gentamicin, compared to untreated control): 4 × | intracellular bacterial load (CFU) ([5]; concentrations of betatide lower than 24 μg/ml, 16 h): did not cause a significant reduction in CFU | reduction of MIC by changes in the linker region (bacteria; from Table 2): ~2 × | reduction of MIC by amidation of the C-termini (bacteria; unpublished data): ~4 × | concentration tolerated by uninfected HaCaT cells (HaCaT cells): up to 40 μg/ml | increase in MIC (Cpx mutant E. coli cells): 2 ×

— article PMC8661032, “Broad-Spectrum Antibacterial Peptide Kills Extracellular and Intracellular Bacteria Without Affecting Epithelialization” (Frontiers in Microbiology, 2021)
